In article PMC11091879, “Inhibitors of the Thioesterase Activity of Mycobacterium tuberculosis Pks13 Discovered Using DNA-Encoded Chemical Library Screening” (ACS Infectious Diseases, 2024):
In brackets after ≈: the same amount, converted by molar mass. Where two headings read alike, the source gives them in different places.

Experiments:
Pks13-TE [1] = target: T1, Pks13-TE (Mycobacterium tuberculosis, UniProt I6X8D2); assay: biochemical
WT H37Rv = assay: microbe, parasite or virus in culture; type: cell-based, Mycobacterium tuberculosis; conditions: for MIC: Mycobacterium tuberculosis, H37RV
Pks13-TE [2] = target: T1, Pks13-TE; assay: biochemical; type: binding
[3] = system: pks13-TetON -ATc (hypomorph); type: cell-based, Mycobacterium tuberculosis
[4] = system: pks13-TetON +ATc (Pks13-hypermorph); type: cell-based, Mycobacterium tuberculosis
Mtb H37Rv = system: Mtb H37Rv; set-up: species or system Mycobacterium tuberculosis; conditions: in vivo, po
Mtb = conditions: in vivo; cited from earlier work
in vitro [5] = conditions: mouse, microsomes
[6] = Metabolic stability in mouse liver microsomes (MLMs)
in vivo = conditions: female, CD-1, mouse
in vitro [7] = conditions: mouse, plasma
in vitro [8] = conditions: human, plasma
[9] = in vivo, po
[10] = Mouse pharmacokinetics studies; conditions: female, CD-1, mouse, plasma
[11] = read-out: MIC (whole cell activity)

T1 sequence (I6X8D2 1451-1733 limits assumed): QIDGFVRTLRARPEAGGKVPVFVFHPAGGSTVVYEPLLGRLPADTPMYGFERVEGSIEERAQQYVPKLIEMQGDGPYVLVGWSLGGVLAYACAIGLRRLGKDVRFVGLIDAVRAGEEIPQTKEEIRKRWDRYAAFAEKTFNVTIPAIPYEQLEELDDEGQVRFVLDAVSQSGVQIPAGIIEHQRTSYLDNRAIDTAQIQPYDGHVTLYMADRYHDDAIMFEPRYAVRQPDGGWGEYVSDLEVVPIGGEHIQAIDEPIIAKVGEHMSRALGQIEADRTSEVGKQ

| SMILES | MIC (WT H37Rv; read-out: MIC (Mtb inhibition)) [µM] | MIC (WT H37Rv; read-out: WT H37Rv MIC (uM)) [µM] | Hypomorph MIC fold shift (WT/-ATc) [3] [fold] | Hypermorph MIC fold shift (+ATc/WT) [4] [fold] | MIC (WT H37Rv; [11]) [µM] | IC50 (Pks13-TE [2]; IC50 (uM)) [µM] | other results |
| --- | --- | --- | --- | --- | --- | --- | --- |
| COCC1(CN(C)C(=O)c2ccc(CCn3cc(-c4ccc(-c5cc(OC)ccc5OC)nc4)nn3)cc2)CC1 [X20403] | 0.05 (≈ 0.0271 µg/mL) | 0.05 (≈ 0.0271 µg/mL) | 0.88 | 2.3 |  |  | IC50 (Pks13-TE [1]): 57 nM; IC50 (Pks13-TE [2]; IC50 in the TAMRA binding assay): 0.5 µM |
| NNC(=O)c1ccncc1 [INH, Isoniazid, reference compound] |  |  |  |  |  |  | reduction in CFU (lung) (Mtb H37Rv; 25 mg/kg): ~1.5 log10; reduction of the burden (Mtb): 1 log10 |
| COc1ccc(OC)c(-c2ccc(-c3cn(CCc4ccc(C(=O)N(C)C)cc4)nn3)cn2)c1 [X20404] | 0.25 (≈ 0.114 µg/mL) | 0.25 (≈ 0.114 µg/mL) | 2.9 | 2.3 | 0.25 (≈ 0.114 µg/mL) | 0.43 | reduction of the lung CFU compared to untreated control (Mtb H37Rv; 100 mg/kg): approximately 0.4 log10; reduction of the lung CFU compared to untreated control (Mtb H37Rv; 200 mg/kg): 0.8 log10; microsomal CLint at 5 μM (in vitro [5]): 26.2 µL/min/mg; IC50 (Pks13-TE [2]; IC50 (enzyme inhibition)): 0.4 µM; half-life at 5 μM [6]: 26.8 min; Vd (in vivo): 0.3 L/kg; bioavailability (in vivo): 8%; clearance (in vivo): 6.2 mL/min/kg; fraction unbound at 4 h, 10000 ng/mL (in vitro [7]; mouse PPB (%)): 0.023; fraction unbound at 4 h, 10000 ng/mL (in vitro [7]; plasma protein binding): 0.02; fraction unbound at 4 h, 10000 ng/mL (in vitro [8]): 0.044; fold higher maximum concentration in blood compared to three other compounds ([9]; female, CD-1, mouse, 25 mg/kg): ~10 fold; plasma concentrations relative to MIC ([9]; mouse, 200 mg/kg): above the MIC; half-life ([10]; intravenous, 5 mg/kg): 36 min; AUC(0-t) ([10]; iv, 5 mg/kg): 13500 ng·h/mL; AUC(0-t) ([10]; po, 25 mg/kg): 3700 ng·h/mL; AUC(0-t) ([10]; po, 50 mg/kg): 14200 ng·h/mL; AUC(0-t) ([10]; po, 100 mg/kg): 33300 ng·h/mL; AUC(0-t) ([10]; po, 200 mg/kg): 98100 ng·h/mL |
| CC(=O)N1CCN(C(=O)C2CCN(c3nc(C)cc(C(=O)NCc4ccccc4)n3)CC2)CC1 [X13045] | 390 (≈ 181 µg/mL) | 390 (≈ 181 µg/mL) | 1.5 |  | 390 (≈ 181 µg/mL) | 15.1 | IC50 (Pks13-TE [1]): 15000 nM |
| COc1ccc(Cl)c(-c2ccc(-c3cn(CCc4ccc(C(=O)N(C)C)cc4)nn3)cn2)c1 [X21464] |  | 5.5 (≈ 2.54 µg/mL) | 2.4 | 3.8 |  | 0.38 |  |
| COc1ccc2[nH]c(C(=O)N3CCN(C(=O)C4CCN(c5nc(C)cc(C(=O)NCc6ccccc6)n5)CC4)CC3)cc2c1OC [X20419] | 0.04 (≈ 0.025 µg/mL) | 0.044 (≈ 0.0275 µg/mL) | 1.8 | 2.5 |  | 0.48 | fold improvement in enzyme inhibition (Pks13-TE [2]): 30 fold |
| Cc1cccc(-c2ccc(-c3cn(CCc4ccc(C(=O)N(C)C)cc4)nn3)cn2)c1C [X21478] |  | 12 (≈ 5.11 µg/mL) | 1.9 | 17 |  | 0.47 |  |
| COc1ccc(OC)c(-c2ccc(-c3cn(CCc4ccncc4)nn3)cn2)c1 [X21498] |  |  | 1.5 | 2.7 |  |  | WT H37Rv MIC (WT H37Rv): 0.26 µM; IC50 (Pks13-TE [2]; read-out: IC50): 0.37 µM |
| Cc1cc(C(=O)NCc2ccncc2)nc(N2CCC(C(=O)N3CCN(C(=O)c4cnc5c(C)cccc5c4)CC3)CC2)n1 [X21429] |  | 0.24 (≈ 0.142 µg/mL) | 2.3 | 3.9 | 0.24 (≈ 0.142 µg/mL) | 0.42 |  |
